# Assay results: patent publication US9321718B2 (CHROMA THERAPEUTICS LTD., priority 2010, dated 2016)
# Read-outs that look alike come from different tables or passages of the source.
# Key:
# intact U937 cells = test: Carboxylic acid accumulation in intact U937 cells; type: in vitro ADME, human; settings: in words
# Description: (§1) The assessment of the accumulation of ester-derived acid in intact human tumour cells can be measured using the following method:
# (§2) U937, THP-1 or Hut 78 cells (4×10^4/ml) were incubated at 37° C. in culture medium containing 6 μM compound. Incubations were terminated by centrifugation (300 g; 5 min; 4° C.). Supernatants were added to 4 volumes of HPLC-grade acetonitrile. After decanting the supernatant, the residual cell pellet (1×10^6 cells) was extracted into 1 ml of acetonitrile. Samples were analyzed for the ester and acid metabolite at room temperature by LC/MS/MS (Sciex API3000). Chromatography was based on an AceCN (75*21 mm) column with a 5-95% (v/v) acetonitrile, 0.1% (v/v) formic acid mobile phase.
# [1] = molecular target: T1, human recombinant his-tagged HSP90α (Homo sapiens, UniProt P07900); test: HSP90 enzyme assay (HTRF, competition with biotinylated Geldanamycin); type: binding
# T1 construct: purchased Prospec Technogene #HSP90
# Summary of the method: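 HTRF competition: compounds (5000 to 0.3 nM, 0.5% DMSO) displace 40 nM biotinylated geldanamycin from 40 nM his-tagged HSP90α. Binding was read via Eu-cryptate anti-his/streptavidin-XL FRET after 20 h at room temperature in Hepes pH 7.3 buffer. IC50 was fitted against controls.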
# intact THP-1 cells = test: Carboxylic acid accumulation in intact THP-1 cells; type: in vitro ADME, human; settings: in words
# Description: as §1, §2
# intact Hut78 cells = test: Carboxylic acid accumulation in intact Hut78 cells; type: in vitro ADME, human; settings: in words
# Description: as §1, §2
# [2] = system: TNFα release from LPS stimulated THP-1 (hCE-1 +ve) cells; test: LPS-stimulation of THP-1 cells (TNF-α release); type: cell-based, human; settings: for IC50: Homo sapiens, THP-1
# Summary of the method: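 THP-1 cells at 4×10^4 per well were pre-incubated for 16 h, then exposed to inhibitor for 2 h before stimulation with 1 μg/ml LPS for 6 h at 37 °C. TNF-α in cell-free supernatants was measured by sandwich ELISA.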
# [3] = system: TNF-α levels in LPS-stimulated human whole blood; test: LPS-stimulation of human whole blood (TNF-α levels); type: cell-based; settings: Homo sapiens; IC50 range; TNF-α after LPS 100 ng/ml, 6 hours
# Description: Whole blood is taken by venous puncture using heparinised vacutainers (Becton Dickinson) and diluted in an equal volume of RPMI1640 tissue culture media (Sigma). 100 μl is then plated in V-bottomed 96 well tissue culture treated plates. 2 Hours after the addition of the inhibitor in 100 μl of RPMI1640 media, the blood is stimulated with LPS (E. Coli strain 005:B5, Sigma) at a final concentration of 100 ng/ml and incubated at 37° C. in 5% CO2 for 6 hours. TNF-α levels are measured from cell-free supernatants by sandwich ELISA (R&D Systems #QTA00B).
# Hut78 (hCE-1 -ve) cells = test: Proliferation assay, Hut78 cells; type: cell-based, human; settings: for IC50: Homo sapiens, Hut78, 72 hours, WST-1, read-out: Proliferation assay: Inhibition of Hut78 (hCE-1 -ve) cell proliferation IC50
# Description: (§3) Cells are seeded in 96 well tissue culture plates (1 well=30 mm^2) at an appropriate density (2000 cells per well for U937 cells, 2250 cells per well for HUT-78 and MINO cells) in 50 μl of culture medium (see below for details). 24 Hours later 50 μl of the compound prepared in the same medium is added as 3 fold dilutions to give final concentrations in the range 5-10,000 nM (n=6 for each concentration). The plates are then incubated at 37° C., 5% CO2 for 72 hours. Cell proliferation is assessed using WST-1 (a metabolic indicator dye, Roche Cat no. 11644807001) according to the manufacturer's instructions. The results are calculated as a percentage of vehicle response and plotted as a dose-response curve. IC50 values represent the concentration of compound that inhibits the vehicle response by 50%.
# (§4) Culture medium for U937 and RUT-78 cells is RPMI1640 (Sigma R0883) with 10% heat inactivated fetal calf serum (Hyclone SH30071, Perbio), plus 2 mM glutamine (Sigma G7513) and 50 U/ml penicillin and streptomycin sulphate (Sigma P0781). MINO cell culture medium is as for U937 and HUT-78 but supplemented with sodium pyruvate (Sigma S8636) to a final concentration of 1 mM.
# U937 (hCE-1 +ve) cells = test: Proliferation assay, U937 cells; type: cell-based, human; settings: for IC50: Homo sapiens, U-937, U937, 72 hours, WST-1, read-out: Proliferation assay: Inhibition of U937 (hCE-1 +ve) cell proliferation IC50
# Description: as §3, §4
# [4] = IC50 range, read-out: Enzyme Assay
# [5] = IC50 range, TNF-α after LPS 1 μg/ml, 6 hours, read-out: THP-1 Assay
# [6] = compound as drawn (ester for the ester compound), read-out: Enzyme assay: Inhibition of Hsp90 (IC50 nM)
# [7] = read-out: THP-1 assay: Inhibition of TNFα release from LPS stimulated THP-1 (hCE-1 +ve) cells (IC50 nM)
"IC50 [1, 4] [nM]","IC50 [2, 5] [nM]",IC50 [3] [µM],Compound,further results
< 100,< 100,0.1 to 1,"CC(C)C[C@H](NC1CCN(C(=O)c2cc(C(C)C)c(O)cc2O)CC1)C(=O)OC1CCCC1 [Example 1, cyclopentyl N-(1-{[2,4-dihydroxy-5-(propan-2-yl)phenyl]carbonyl}piperidin-4-yl)-L-leucinate]",Carboxylic acid accumulated by U937 cells (intact U937 cells): significant amounts; Carboxylic acid accumulated by THP-1 cells (intact THP-1 cells): significant amounts; Acid detected in Hut78 cells (intact Hut78 cells): negligible
< 100,< 100,0.1 to 1,"CC(C)c1cc(C(=O)N2CCC(N[C@@H](COC(C)(C)C)C(=O)OC3CCCC3)CC2)c(O)cc1O [Example 17, cyclopentyl O-tert-butyl-N-(1-{[2,4-dihydroxy-5-(propan-2-yl)phenyl]carbonyl}piperidin-4-yl)-L-serinate]","IC50 ([1]; acid (carboxylic acid of the ester drawn), read-out: Enzyme assay: Inhibition of Hsp90 (IC50 nM)): 7 nM; IC50 [1, 6]: 42 nM; IC50 in the Hsp90 binding assay compared with CHR-7310 ([1]; in words, relative to non-ester parent CHR-7310): weaker; IC50 (Hut78 (hCE-1 -ve) cells): 0.76 µM; Ratio of IC50's of Hut78 to U937 cells (Hut78 (hCE-1 -ve) cells): 28; Potency in Hut78 cells (Hut78 (hCE-1 -ve) cells; in words, Hut78 cells do not contain hCE-1): significantly weaker; IC50 [2, 7]: 45 nM; Potency in THP-1 cells compared with CHR-7310 ([2]; in words, relative to CHR-7310): significantly more potent; IC50 (U937 (hCE-1 +ve) cells): 0.027 µM; Potency in U937 cells compared with CHR-7310 (U937 (hCE-1 +ve) cells; in words, relative to CHR-7310): significantly more potent"
–,–,–,"CC1CCN(C(=O)c2cc(C(C)C)c(O)cc2O)CC1 [CHR-7310, reference compound]","IC50 [1, 6]: 8 nM; IC50 (Hut78 (hCE-1 -ve) cells): 0.145 µM; Ratio of IC50's of Hut78 to U937 cells (Hut78 (hCE-1 -ve) cells): ~1; IC50 [2, 7]: 476 nM; IC50 (U937 (hCE-1 +ve) cells): 0.2 µM"
< 100,100 to 1000,0.1 to 1,"CC(C)c1cc(C(=O)N2CCC(N[C@@H](Cc3ccccc3)C(=O)OC3CCCC3)CC2)c(O)cc1O [Example 9, cyclopentyl N-(1-{[2,4-dihydroxy-5-(propan-2-yl)phenyl]carbonyl}piperidin-4-yl)-L-phenylalaninate]",–
< 100,100 to 1000,0.1 to 1,"CC(C)C[C@H](NCCC1CCN(C(=O)c2cc(C(C)C)c(O)cc2O)CC1)C(=O)OC1CCCC1 [Example 38, cyclopentyl N-[2-(1-{[2,4-dihydroxy-5-(propan-2-yl)phenyl]carbonyl}piperidin-4-yl)ethyl]-L-leucinate]",–
< 100,100 to 1000,0.1 to 1,"CC(C)c1cc(C(=O)N2CCC(CNC(C)(C)C(=O)OC3CCCC3)CC2)c(O)cc1O [Example 32, cyclopentyl N-[(1-{[2,4-dihydroxy-5-(propan-2-yl)phenyl]carbonyl}piperidin-4-yl)methyl]-2-methyl-L-alaninate]",–
< 100,100 to 1000,> 1,"CC(C)C[C@H](NCc1cccc(CN(C)C(=O)c2cc(C(C)C)c(O)cc2O)c1)C(=O)OC1CCCC1 [Example 66, cyclopentyl N-(3-{[{[2,4-dihydroxy-5-(propan-2-yl)phenyl]carbonyl}(methyl)amino]methyl}benzyl)-L-leucinate]",–
